Here are results for 1 compound from patent US20080213810A1, “Screening Method for Hiv Rt Inhibitors” (priority 2005, published 2008).

For this assay, the target named is HIV RT (Human immunodeficiency virus type 1 group M subtype B, UniProt P04585). Briefly: Enzyme kinetics studies (1/v versus 1/[dTTP]). Type of assay: biochemical. Particulars: 40-3 μM dTTP, 2-0 μM compound 1, poly(rA)oligo(dT); lines cross at the Y-axis intercept. Here is the method:
The enzyme kinetics studies were carried out using a protocol involving a 4×5 matrix of varying substrate and inhibitor concentrations over ranges of 40-3 μM of dTTP and 2-0 μM of compound 1.
The reaction mixtures (50 μl) further contained 50 mM Tris.HCl (pH 7.8), 5 mM dithiothreitol, […], 500 μM EDTA, 150 mM KCl, 5 mM MgCl2, 0.15 mM of the template/primer poly(rA)oligo(dT) and 0.06% Triton X-100. The reaction mixtures were incubated at 37° C. for 15 min, at which time 100 μl of calf thymus DNA ([…]), 2 ml of Na4P207 (0.1 M in 1 M HCl), and 2 ml of trichloroacetic acid (10% v/v) were added. The solutions were kept on ice for 30 min, after which the acid-insoluble material was washed and analyzed for radioactivity. When the reciprocal of the reaction velocity (1/v) is plotted against the reciprocal of the substrate concentration (1/[dTTP]) in the presence of different concentrations of compound 1, the graph (See FIG. 1) is obtained.
Since all the lines cross at the intercept with the Y-axis it is clear that this compound has a competitive mode of HIV RT inhibition.

For the compound `Cn1c2ccccc2c2c1cc(C#N)c(=O)n2-c1ccc([N+](=O)[O-])cc1` [Compound 1], the “mode of HIV RT inhibition” value is on record as “competitive”.
